Target: T1, Aromatase (Homo sapiens, UniProt P11511)
T1 sequence (P11511 whole entry): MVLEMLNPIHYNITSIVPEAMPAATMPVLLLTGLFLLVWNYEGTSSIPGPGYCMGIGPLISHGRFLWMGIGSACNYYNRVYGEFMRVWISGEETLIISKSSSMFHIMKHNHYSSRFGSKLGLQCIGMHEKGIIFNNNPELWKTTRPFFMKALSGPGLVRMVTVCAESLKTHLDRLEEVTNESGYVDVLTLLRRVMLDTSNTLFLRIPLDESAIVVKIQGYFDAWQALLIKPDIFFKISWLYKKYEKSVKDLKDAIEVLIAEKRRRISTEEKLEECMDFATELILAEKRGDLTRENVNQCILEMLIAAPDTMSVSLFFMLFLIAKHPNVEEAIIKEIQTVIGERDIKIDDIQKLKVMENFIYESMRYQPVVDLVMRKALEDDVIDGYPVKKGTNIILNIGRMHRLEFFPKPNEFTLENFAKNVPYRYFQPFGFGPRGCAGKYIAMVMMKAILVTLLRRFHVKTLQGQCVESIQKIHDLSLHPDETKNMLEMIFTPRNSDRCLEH
Experiment: Aromatase Assay
Conditions: pH 7.5; 37 °C
Experimental: The enzyme activity was assayed by measuring the 3H-labeled H2O formed from [1beta-3H] Androstenedione during aromatization. After incubation, the reaction was terminated by CHCl3 extraction and centrifugation. Aliquots of the water phase were assayed for the presence of 3H2O by counting using a liquid scintillation spectrometer.

SMILES: C[C@]12CCC(=O)C=C1CCC1C2CC[C@]2(C)C(=O)CCC12 (stereo partly drawn) [[1beta-3H] androstenedione]
- IC50: 300 nM
- Ki: 20 nM

— BindingDB's records for doi:10.1021/jm950720u (Tohoku College of Pharmacy, 1996)
